Results taken from patent publication US6462174B1, “Amorphous compound” (AstraZeneca AB, priority 2001, dated 2002).

Experiments:
[1] = cited from earlier work
[2] = Solubility in toluene (antisolvent); format: physicochemical
Description: When the volume was reduced to 100-150 ml, another portion of toluene was added and the procedure repeated.

[3] = Differential Scanning Calorimetry (DSC); format: physicochemical; conditions: dry amorphous lisinopril
Description: Differential Scanning Calorimetry (DSC) was performed on approximately 0.5-3 mg sample, using a Mettler DSC820 instrument, according to standard methods, for example those described in Höhne et al. (1996) Differential scanning Calorimetry, Springer, Berlin.

[4] = Dynamic vapour sorption (DVS) stability test; format: physicochemical; conditions: first sorption process (Cycle 1 Sorp), FIG. 3
[5] = Thermal Mechanical Analysis (TMA); format: physicochemical; conditions: heating rate 10° C./min, 30-160° C.
Description: The method involves compressing 140 mg of material in a punch and die (3 mm) to 2 KN. The compressed pellet was then placed on the TMA and the 1.1 mm probe placed on the top face. A heating rate of 10° C./min was used and the sample was heated from 30-160° C.

Row | SMILES | effective half-life of accumulation ([1]; multiple dosing) | time to peak serum concentrations ([1]; oral administration) | solubility in toluene [2] | glass transition temperature (Tg) [3] | physical stability to water-induced crystallisation (DVS) [4] | glass transition temperature [5]
1 | NCCCC[C@H](NC(CCc1ccccc1)C(=O)O)C(=O)N1CCC[C@H]1C(=O)O (stereo partly drawn) [lisinopril, (S)-1-[N^2-(1-carboxy-3-phenylpropyl]-L-lysyl]-L-proline] | about 12.6 hours | ≤ 7 h | insoluble | – | – | –
2 | NCCCC[C@H](NC(CCc1ccccc1)C(=O)O)C(=O)N1CCC[C@H]1C(=O)O (stereo partly drawn) [amorphous lisinopril, (S)-1-[N^2-(1-carboxy-3-phenylpropyl]-L-lysyl]-L-proline] | – | – | – | 125 °C | no expulsion of absorbed water due to recrystallisation was observed | 129 °C
